Data from patent publication US9656988B2 (Pharmacyclics LLC, priority 2013, dated 2017).
pIC50: −log10 of the molar value. Read-outs that look alike come from different tables or passages of the source.

Target: BTK (Homo sapiens (Human), UniProt Q06187)
Assay: Btk in vitro inhibitory activity (one of Method A TR-FRET, Method B electrophoretic mobility shift, Method C radiometric filter binding)
Type: biochemical
[1] = determined using one of the methods of Example 355a, 355b and 355c, read-out: BTK IC50

BTK, sequence (Q06187 whole entry): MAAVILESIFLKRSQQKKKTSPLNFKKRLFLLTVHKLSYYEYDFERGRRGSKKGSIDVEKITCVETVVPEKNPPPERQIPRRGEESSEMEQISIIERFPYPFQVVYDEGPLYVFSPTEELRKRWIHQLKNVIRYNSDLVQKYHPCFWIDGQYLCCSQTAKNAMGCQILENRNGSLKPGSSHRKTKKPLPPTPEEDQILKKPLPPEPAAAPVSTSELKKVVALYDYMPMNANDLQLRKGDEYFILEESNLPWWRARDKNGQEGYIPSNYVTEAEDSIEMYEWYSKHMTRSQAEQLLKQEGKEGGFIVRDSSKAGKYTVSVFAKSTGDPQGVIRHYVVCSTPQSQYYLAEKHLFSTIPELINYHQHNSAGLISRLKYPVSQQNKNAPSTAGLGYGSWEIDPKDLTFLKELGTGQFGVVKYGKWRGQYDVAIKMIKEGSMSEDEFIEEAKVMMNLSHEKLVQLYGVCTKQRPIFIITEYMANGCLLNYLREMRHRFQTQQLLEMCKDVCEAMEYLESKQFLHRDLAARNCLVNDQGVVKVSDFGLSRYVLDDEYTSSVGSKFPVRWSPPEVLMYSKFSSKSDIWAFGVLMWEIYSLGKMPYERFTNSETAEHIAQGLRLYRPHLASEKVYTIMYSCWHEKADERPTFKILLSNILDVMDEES

Structure (SMILES) | pIC50 [1] | pIC50 (Btk (IC50)) | pIC50 (read-out: Btk (IC50))
NC(=O)c1nnc(N2CCC[C@@H](NC(=O)N3CCOCC3)C2)nc1Nc1ccc(-c2ncco2)cc1 [Example 59, (R)—N-(1-(6-carbamoyl-5-(4-(oxazol-2-yl)phenylamino)-1,2,4-triazin-3-yl)piperidin-3-yl)morpholine-4-carboxamide] | 7.00 to 8.00 | – | –
CC(C)(C)OC(=O)N1CCC[C@@H](Nc2nnc(C(N)=O)c(Nc3ccc(C(=O)N4CCOCC4)cc3)n2)C1 [Example 60, (R)-tert-butyl 3-(6-carbamoyl-5-(4-(morpholine-4-carbonyl)phenylamino)-1,2,4-triazin-3-ylamino)piperidine-1-carboxylate] | 6.00 to 7.00 | – | –
NC(=O)c1nnc(N[C@@H]2CCCNC2)nc1Nc1ccc(C(=O)N2CCOCC2)cc1 [Example 61, (R)-5-(4-(morpholine-4-carbonyl)phenylamino)-3-(piperidin-3-ylamino)-1,2,4-triazine-6-carboxamide] | 5.00 to 6.00 | – | –
CC(C)(C)c1ccc(C(=O)N2CCC[C@@H](Nc3nnc(C(N)=O)c(Nc4ccc(C(=O)N5CCOCC5)cc4)n3)C2)cc1 [Example 62, (R)-3-(1-(4-tert-butylbenzoyl)piperidin-3-ylamino)-5-(4-(morpholine-4-carbonyl)phenylamino)-1,2,4-triazine-6-carboxamide] | 7.00 to 8.00 | – | –
CCC(=O)N1CCC[C@@H](Nc2nnc(C(N)=O)c(Nc3ccc(C(=O)N4CCOCC4)cc3)n2)C1 [Example 63, (R)-5-(4-(morpholine-4-carbonyl)phenylamino)-3-(1-propionylpiperidin-3-ylamino)-1,2,4-triazine-6-carboxamide] | > 8.00 | – | –
NC(=O)c1nnc(N[C@@H]2CCCN(C(=O)C3CC3)C2)nc1Nc1ccc(C(=O)N2CCOCC2)cc1 [Example 64, (R)-3-(1-(cyclopropanecarbonyl)piperidin-3-ylamino)-5-(4-(morpholine-4-carbonyl)phenylamino)-1,2,4-triazine-6-carboxamide] | > 8.00 | – | –
C=CC(=O)N1CCC[C@@H](Nc2nnc(C(N)=O)c(Nc3ccc(C(=O)N4CCOCC4)cc3)n2)C1 [Example 65, (R)-3-(1-acryloylpiperidin-3-ylamino)-5-(4-(morpholine-4-carbonyl)phenylamino)-1,2,4-triazine-6-carboxamide] | > 8.00 | – | –
CN(C)C/C=C/C(=O)N1CCC[C@@H](Nc2nnc(C(N)=O)c(Nc3ccc(C(=O)N4CCOCC4)cc3)n2)C1 [Example 66, (R,E)-3-(1-(4-(dimethylamino)but-2-enoyl)piperidin-3-ylamino)-5-(4-(morpholine-4-carbonyl)phenylamino)-1,2,4-triazine-6-carboxamide] | > 8.00 | – | –
CN(C/C=C/C(=O)N1CCC[C@@H](Nc2nnc(C(N)=O)c(Nc3ccc(C(=O)N4CCOCC4)cc3)n2)C1)C1CC1 [Example 67, (R,E)-3-(1-(4-(cyclopropyl(methyl)amino)but-2-enoyl)piperidin-3-ylamino)-5-(4-(morpholine-4-carbonyl)phenylamino)-1,2,4-triazine-6-carboxamide] | > 8.00 | – | –
CC(C)(C)OC(=O)N1CC[C@@H](Nc2nnc(C(N)=O)c(Nc3ccc(C(=O)N4CCOCC4)cc3)n2)C1 [Example 68, (R)-tert-butyl 3-(6-carbamoyl-5-(4-(morpholine-4-carbonyl)phenylamino)-1,2,4-triazin-3-ylamino)pyrrolidine-1-carboxylate] | 6.00 to 7.00 | – | –
C=CC(=O)N1CCC[C@@H](N(C)c2cnc(C(N)=O)c(Nc3ccc(C(=O)N4CCOCC4)cc3)n2)C1 [Example 74, (R)-5-((1-acryloylpiperidin-3-yl)(methyl)amino)-3-(4-(morpholine-4-carbonyl)phenylamino)pyrazine-2-carboxamide] | > 8.00 | – | > 8.00
CN(C)C/C=C/C(=O)N1CCC[C@@H](N(C)c2cnc(C(N)=O)c(Nc3ccc(C(=O)N4CCOCC4)cc3)n2)C1 [Example 75, (R,E)-5-((1-(4-(dimethylamino)but-2-enoyl)piperidin-3-yl)(methyl)amino)-3-(4-(morpholine-4-carbonyl)phenylamino)pyrazine-2-carboxamide] | > 8.00 | – | –
NC(=O)c1nnc(N2CCC[C@@H](NC(=O)c3ccc(OCC(F)(F)F)cc3)C2)nc1Nc1ccc(C(=O)N2CCOCC2)cc1 [Example 86, (R)-5-(4-(morpholine-4-carbonyl)phenylamino)-3-(3-(4-(2,2,2-trifluoroethoxy)benzamido)piperidin-1-yl)-1,2,4-triazine-6-carboxamide] | – | – | > 8.00
CCOc1ccc(C(=O)N[C@@H]2CCCN(c3nnc(C(N)=O)c(Nc4ccc(C(=O)N5CCOCC5)cc4)n3)C2)cc1 [Example 88, (R)-3-(3-(4-ethoxybenzamido)piperidin-1-yl)-5-(4-(morpholine-4-carbonyl)phenylamino)-1,2,4-triazine-6-carboxamide] | > 8.00 | – | > 8.00
CCCOc1ccc(C(=O)N[C@@H]2CCCN(c3nnc(C(N)=O)c(Nc4ccc(C(=O)N5CCOCC5)cc4)n3)C2)cc1 [Example 89, (R)-5-(4-(morpholine-4-carbonyl)phenylamino)-3-(3-(4-propoxybenzamido)piperidin-1-yl)-1,2,4-triazine-6-carboxamide] | > 8.00 | – | > 8.00

Further lines, with some results ahead:

pIC50 [1] | pIC50 (Btk (IC50)) | Structure (SMILES) | pIC50 (read-out: Btk (IC50))
7.00 to 8.00 | – | NC(=O)c1nnc(N[C@@H]2CCNC2)nc1Nc1ccc(C(=O)N2CCOCC2)cc1 [Example 69, (R)-5-(4-(morpholine-4-carbonyl)phenylamino)-3-(pyrrolidin-3-ylamino)-1,2,4-triazine-6-carboxamide] | –
7.00 to 8.00 | – | CN(C/C=C/C(=O)N1CC[C@@H](Nc2nnc(C(N)=O)c(Nc3ccc(C(=O)N4CCOCC4)cc3)n2)C1)C1CC1 [Example 71, (R,E)-3-(1-(4-(cyclopropyl(methyl)amino)but-2-enoyl)pyrrolidin-3-ylamino)-5-(4-(morpholine-4-carbonyl)phenylamino)-1,2,4-triazine-6-carboxamide] | –
> 8.00 | – | CC(C)(C)c1ccc(C(=O)N[C@@H]2CCCN(c3cnc(C(N)=O)c(Nc4ccc(C(=O)N5CCOCC5)cc4)n3)C2)cc1 [Example 73, (R)-5-(3-(4-tert-butylbenzamido)piperidin-1-yl)-3-(4-(morpholine-4-carbonyl)phenylamino)pyrazine-2-carboxamide] | –
6.00 to 7.00 | – | CC(C)(C)c1ccc(C(=O)N[C@@H]2CCCN(c3cnc(C(N)=O)c(Nc4ccc(C(=O)N5CCOCC5)cc4)c3)C2)cc1 [Example 76, (R)-5-(3-(4-tert-butylbenzamido)piperidin-1-yl)-3-(4-(morpholine-4-carbonyl)phenylamino)picolinamide] | –
7.00 to 8.00 | – | Cc1cc(Nc2cc(N3CCC[C@@H](NC(=O)c4ccc(C(C)(C)C)cc4)C3)cnc2C(N)=O)sn1 [Example 77, (R)-5-(3-(4-tert-butylbenzamido)piperidin-1-yl)-3-(3-methylisothiazol-5-ylamino)picolinamide] | –
7.00 to 8.00 | 7.00 to 8.00 | CC(C)(C)c1ccc(NC(=O)N[C@@H]2CCCN(c3nnc(C(N)=O)c(Nc4ccc(C(=O)N5CCOCC5)cc4)n3)C2)cc1 [Example 79, (R)-3-(3-(3-(4-tert-butylphenyl)ureido)piperidin-1-yl)-5-(4-(morpholine-4-carbonyl)phenylamino)-1,2,4-triazine-6-carboxamide] | –
7.00 to 8.00 | 7.00 to 8.00 | COc1ccc(NC(=O)N[C@@H]2CCCN(c3nnc(C(N)=O)c(Nc4ccc(C(=O)N5CCOCC5)cc4)n3)C2)cc1 [Example 80, (R)-3-(3-(3-(4-methoxyphenyl)ureido)piperidin-1-yl)-5-(4-(morpholine-4-carbonyl)phenylamino)-1,2,4-triazine-6-carboxamide] | –
7.00 to 8.00 | 7.00 to 8.00 | CN(C)C(=O)N[C@@H]1CCCN(c2nnc(C(N)=O)c(Nc3ccc(C(=O)N4CCOCC4)cc3)n2)C1 [Example 81, (R)-3-(3-(3,3-dimethylureido)piperidin-1-yl)-5-(4-(morpholine-4-carbonyl)phenylamino)-1,2,4-triazine-6-carboxamide] | –
7.00 to 8.00 | 7.00 to 8.00 | CC(C)C1CCN(C(=O)N[C@@H]2CCCN(c3nnc(C(N)=O)c(Nc4ccc(C(=O)N5CCOCC5)cc4)n3)C2)CC1 [Example 82, (R)-3-(3-(4-isopropylpiperidine-1-carboxamido)piperidin-1-yl)-5-(4-(morpholine-4-carbonyl)phenylamino)-1,2,4-triazine-6-carboxamide] | –
6.00 to 7.00 | 6.00 to 7.00 | NC(=O)c1nnc(N2CCC[C@@H](NC(=O)C(=O)N3CCCCC3)C2)nc1Nc1ccc(C(=O)N2CCOCC2)cc1 [Example 83, (R)-5-(4-(morpholine-4-carbonyl)phenylamino)-3-(3-(2-oxo-2-(piperidin-1-yl)acetamido)piperidin-1-yl)-1,2,4-triazine-6-carboxamide] | –
7.00 to 8.00 | 7.00 to 8.00 | NC(=O)c1nnc(N2CCC[C@@H](NC(=O)c3ccc4ccccc4n3)C2)nc1Nc1ccc(C(=O)N2CCOCC2)cc1 [Example 84, (R)—N-(1-(6-carbamoyl-5-(4-(morpholine-4-carbonyl)phenylamino)-1,2,4-triazin-3-yl)piperidin-3-yl)quinoline-2-carboxamide] | –
7.00 to 8.00 | 7.00 to 8.00 | NC(=O)c1nnc(N2CCC[C@@H](NC(=O)c3ccc4ncccc4c3)C2)nc1Nc1ccc(C(=O)N2CCOCC2)cc1 [Example 85, (R)—N-(1-(6-carbamoyl-5-(4-(morpholine-4-carbonyl)phenylamino)-1,2,4-triazin-3-yl)piperidin-3-yl)quinoline-6-carboxamide] | –
7.00 to 8.00 | – | CC(C)Oc1ccc(C(=O)N[C@@H]2CCCN(c3nnc(C(N)=O)c(Nc4ccc(C(=O)N5CCOCC5)cc4)n3)C2)cc1 [Example 90, (R)-5-(4-(morpholine-4-carbonyl)phenylamino)-3-(3-(4-isopropoxybenzamido)piperidin-1-yl)-1,2,4-triazine-6-carboxamide] | 7.00 to 8.00
7.00 to 8.00 | 7.00 to 8.00 | Cc1cc(C(=O)N[C@@H]2CCCN(c3nnc(C(N)=O)c(Nc4ccc(C(=O)N5CCOCC5)cc4)n3)C2)no1 [Example 91, (R)—N-(1-(6-carbamoyl-5-(4-(morpholine-4-carbonyl)phenylamino)-1,2,4-triazin-3-yl)piperidin-3-yl)-5-methylisoxazole-3-carboxamide] | –
